Reference: patent US6489098B1, “Means and methods for monitoring nucleoside reverse transcriptase inhibitor antiretroviral therapy and guiding therapeutic decisions in the treatment of HIV/AIDS” (ViroLogic, Inc., priority 1998, dated 2002)
“And” between values parts separate entries of the source, which are not always exact repeats. Identical values can stand only once.

What was measured:
[1] = system: HIV-1 RT mutant resistance test vector A62V-T69SSA-L74V-RTV; test: Phenotypic susceptibility assay, site directed RTV A62V-T69SSA-L74V; assay type: cell-based; settings: for Average fold reduction in susceptibility: RTV with 62 + 69 + 74V, 1 replicate
Description: (§1) Resistance tests were carried out with resistance test vectors using two host cell types. Resistance test vector viral particles were produced by a first host cell (the resistance test vector host cell) that was prepared by transfecting a packaging host cell with the resistance test vector and the packaging expression vector. The resistance test vector viral particles were then used to infect a second host cell (the target host cell) in which the expression of the indicator gene is measured.
(§2) The resistance test vectors containing a functional luciferase gene cassette were constructed and host cells were transfected with the resistance test vector DNA. The resistant test vectors contained patient-derived reverse transcriptase and protease sequences that were either susceptible or resistant to the antiretroviral agents, such as nucleoside reverse transcriptase inhibitors, non-nucleoside reverse transcriptase inhibitors and protease inhibitors. The resistance test vector viral particles produced by transfecting the resistance test vector DNA into host cells, either in the presence or absence of protease inhibitors, were used to infect target host cells grown either in the absence of NRTI or NNRTI or In the presence of increasing concentrations of the drug. The amount of luciferase activIty produced in infected target host cells in the presence of drug was compared to the amount of luciferase produced in infected target host cells in the absence of drug. Drug resistance was measured as the amount of drug required to inhibit by 50% the luciferase activity detected in the absence of drug (Inhibitory concentration 50%, IC50). The IC50 values were determined by plotting percent drug inhibition vs. log 10 drug concentration.
Host cells were seeded in 10-cm-diameter dishes and were transfected several days after plating with resistance test vector plasmid DNA and the envelope expression vector. Transfections were performed using a calcium-phosphate precipitation procedure. The cell culture media containing the DNA precipitate was replaced with fresh medium, from one to 24 hours, after transfection. Cell culture media containing resistance test vector viral particles was harvested one to four days after transfection and was passed through a […] filter before being stored at −80° C. HIV capsid protein (p24) levels in the harvested cell culture media were determined by an EIA method as described by the manufacturer (SIAC; Frederick, Md.). Before infection, target cells (293 and 293/T) were plated in cell culture media. Control infections were performed using cell culture media from mock transfections (no DNA) or transfections containing the resistance test vector plasmid DNA without the envelope expression plasmid. One to three or more days after infectIon the media was removed and cell lysis buffer (Promega) was added to each well. […] The inhibitory effect of the drug was determined using the following equation:
(§3) % luciferase inhibition=1−(RLUluc[drug]÷RLUluc)×100
where RLUluc [drug] is the relative light unit of luciferase activity in infected cells in the presence of drug and RLUluc is the Relative Light Unit of luciferase activity in infected cells in the absence of drug. IC50 values were obtained from the sigmoidal curves that were generated from the data by plotting the percent inhibition of luciferase activity vs. the log 10 drug concentration. […]

[2] = system: HIV-1 RT mutant resistance test vector 41 + 215 (M41L and T215Y); test: Phenotypic susceptibility assay, site directed RTV 41 + 215; assay type: cell-based; settings: RTV with 41 + 215; 4 replicates
Description: as §1, §2
(§4) Host cells were seeded in 10-cm-diameter dishes and were transfected several days after plating with resistance test vector plasmid DNA and the envelope expression vector. Transfections were performed using a calcium-phosphate precipitation procedure. The cell culture media containing the DNA precipitate was replaced with fresh medium, from one to 24 hours, after transfection. Cell culture media containing resistance test vector viral particles was harvested one to four days after transfection and was passed through a […] filter before being stored at −80° C. HIV capsid protein (p24) levels in the harvested cell culture media were determined by an EIA method as described by the manufacturer (SIAC; Frederick, Md.). Before infection, target cells (293 and 293/T) were plated in cell culture media. Control infections were performed using cell culture media from mock transfections (no DNA) or transfections containing the resistance test vector plasmid DNA without the envelope expression plasmid. One to three or more days after infectIon the media was removed and cell lysis buffer (Promega) was added to each well. Cell lysates were assayed for luciferase activity (FIG. 3). The inhibitory effect of the drug was determined using the following equation:
as §3
(§5) where RLUluc [drug] is the relative light unit of luciferase activity in infected cells in the presence of drug and RLUluc is the Relative Light Unit of luciferase activity in infected cells in the absence of drug. IC50 values were obtained from the sigmoidal curves that were generated from the data by plotting the percent inhibition of luciferase activity vs. the log 10 drug concentration. The drug inhibition curves are shown in (FIG. 3).
(§6) Genotypic changes that are observed to correlate with changes in phenotypic patterns of drug susceptibility are evaluated by construction of resistance test vectors containing the specific mutation on a defined, wild-type (drug susceptible) genetic background. Mutations may be incorporated alone and/or in combination with other known drug resistance mutations that are thought to modulate the susceptibility of HIV to a certain drug or class of drugs. […]

[3] = system: HIV-1 RT mutant resistance test vector 41 + 62 + 69 + 75M + 210 + 215; test: Phenotypic susceptibility assay, site directed RTV 41 + 62 + 69 + 75M + 210 + 215; assay type: cell-based; settings: RTV with 41 + 62 + 69 + 75M + 210 + 215; 1 replicate
Description: as §1, §2, §4, §3, §5, §6

[4] = system: HIV-1 RT mutant resistance test vector 41 + 62 + 69 + 75S + 210 + 215; test: Phenotypic susceptibility assay, site directed RTV 41 + 62 + 69 + 75S + 210 + 215; assay type: cell-based; settings: RTV with 41 + 62 + 69 + 75S + 210 + 215; 1 replicate
Description: as §1, §2, §4, §3, §5, §6

[5] = system: HIV-1 RT mutant resistance test vector 41 + 184 + 215; test: Phenotypic susceptibility assay, site directed RTV 41 + 184 + 215; assay type: cell-based; settings: RTV with 41 + 184 + 215; 3 replicates
Description: as §1, §2, §4, §3, §5, §6

[6] = system: HIV strains resistant to abacavir; settings: cited from earlier work
[7] = system: ZDV-resistant HIV isolates; settings: cited from earlier work

| Compound | effect on susceptibility (words) ([1]; L74V introduced with A62V+T69SSA) | Average fold reduction in susceptibility [2] [fold] | Average fold reduction in susceptibility [3] [fold] | Average fold reduction in susceptibility [4] [fold] | Average fold reduction in susceptibility [5] [fold] | cross resistance of abacavir-resistant strains [6] | Average fold reduction in susceptibility [1] | cross-resistance of ZDV-resistant strains [7] | fold resistance ([6]; multiple mutations (at least three)) [fold] |
| --- | --- | --- | --- | --- | --- | --- | --- | --- | --- |
| Cc1cn([C@H]2C[C@H](N=[N+]=[N-])[C@@H](CO)O2)c(=O)[nH]c1=O [AZT, zidovudine] | shift of the susceptibility back to wild-type | 17.82 | >1000 | >1000 | 2.77 | not to d4T or ZDV | – | – | – |
| Nc1ccn([C@H]2CC[C@@H](CO)O2)c(=O)n1 [ddC, zalcitabine] | – | 1.21 | 2.09 | 2.58 | 1.73 | Cross resistance | 1.8 fold and 1.80 fold | no evidence that mutations selected for during ZDV monotherapy influence sensitivity | – |
| Cc1cn([C@H]2C=C[C@@H](CO)O2)c(=O)[nH]c1=O [d4T, stavudine] | – | 1.61 | 13.18 | 14.13 | 1.18 | not to d4T or ZDV | 1.5 fold and 1.50 fold | Cross-resistance | – |
| O=c1[nH]cnc2c1ncn2[C@H]1CC[C@@H](CO)O1 [ddI, didanosine] | – | 1.09 | 3.10 | 5.12 | 1.35 | Cross resistance | – | no evidence that mutations selected for during ZDV monotherapy influence sensitivity | – |
| Nc1nc(NC2CC2)c2ncn([C@H]3C=C[C@@H](CO)C3)c2n1 [ABC, abacavir] | – | 1.68 | 15.53 | 14.21 | 3.02 | – | – | – | 10 |
